SMILES strings stand for the structures.

Experiment [1] deals with T1, Lysosomal alpha-glucosidase (Homo sapiens, UniProt P10253). Description: Inhibition of human GAA using 4-methylumbelliferyl-alpha-D-glucopyranoside as substrate preincubated for 45 min followed by substrate addition and measured after 30 min by fluorescence spectrophotometer analysis.
The nature of experiment [2]: Inhibition of Lysosomal alpha-glucosidase in Aspergillus niger.
The nature of experiment [3]: Inhibition of Glycosidase (unknown origin). Set-up: species or system Homo sapiens.
Experiment [4] addresses T1, Lysosomal alpha-glucosidase. To be noted: dose 10.0 µM.
Description: Stabilization of recombinant human GAA using 4-methylumbelliferyl-alpha-D-glucopyranoside as substrate assessed as relative fluorescence intensity by measuring midpoint temperature protein denaturation at 10 uM by thermal shift assay (Rvb = 58.6 degC)
Experiment [5] in a line: Inhibition of Endoplasmic reticulum alpha-glucosidase (unknown origin). Details: species or system Homo sapiens.
Experiment [6] has as its target Sucrase-isomaltase, intestinal (Homo sapiens, UniProt P14410). Description: Inhibition of Sucrase (unknown origin).
Experiment [7] is described as follows: Inhibition of rat intestinal maltase.
A short description of experiment [8]: Inhibition of Maltase (unknown origin). Details: species or system Homo sapiens.
Experiment [9] is described as follows: Inhibition of Penicillium decumbens Alpha-L-rhamnosidase.

Sucrase-isomaltase, intestinal, sequence (P14410 2-1007 limits assumed): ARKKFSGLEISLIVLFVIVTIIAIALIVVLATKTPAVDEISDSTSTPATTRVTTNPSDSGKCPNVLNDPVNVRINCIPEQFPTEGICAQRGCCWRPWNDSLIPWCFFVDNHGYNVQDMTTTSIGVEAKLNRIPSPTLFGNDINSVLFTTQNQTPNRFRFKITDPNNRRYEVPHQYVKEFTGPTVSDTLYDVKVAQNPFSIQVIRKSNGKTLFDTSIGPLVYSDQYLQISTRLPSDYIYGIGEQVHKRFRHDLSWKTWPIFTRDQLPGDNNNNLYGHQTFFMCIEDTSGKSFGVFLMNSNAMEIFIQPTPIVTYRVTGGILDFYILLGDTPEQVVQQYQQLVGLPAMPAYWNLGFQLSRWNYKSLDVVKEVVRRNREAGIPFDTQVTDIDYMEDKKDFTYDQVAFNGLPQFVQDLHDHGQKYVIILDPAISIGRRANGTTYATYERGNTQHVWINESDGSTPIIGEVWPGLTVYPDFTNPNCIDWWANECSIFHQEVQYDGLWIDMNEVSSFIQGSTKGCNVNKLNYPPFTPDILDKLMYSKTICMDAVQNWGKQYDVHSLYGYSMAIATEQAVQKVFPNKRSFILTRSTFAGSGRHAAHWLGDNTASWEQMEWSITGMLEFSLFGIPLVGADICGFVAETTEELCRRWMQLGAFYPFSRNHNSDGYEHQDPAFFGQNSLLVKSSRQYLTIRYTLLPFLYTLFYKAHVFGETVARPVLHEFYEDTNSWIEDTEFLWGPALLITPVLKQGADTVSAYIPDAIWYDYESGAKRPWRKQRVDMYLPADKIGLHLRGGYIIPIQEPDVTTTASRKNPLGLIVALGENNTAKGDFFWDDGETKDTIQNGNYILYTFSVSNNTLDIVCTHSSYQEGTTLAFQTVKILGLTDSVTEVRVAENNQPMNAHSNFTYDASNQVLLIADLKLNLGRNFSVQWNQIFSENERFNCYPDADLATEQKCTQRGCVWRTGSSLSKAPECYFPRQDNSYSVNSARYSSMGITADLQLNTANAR
Sucrase-isomaltase, intestinal, sequence (P14410 1008-1827 limits assumed): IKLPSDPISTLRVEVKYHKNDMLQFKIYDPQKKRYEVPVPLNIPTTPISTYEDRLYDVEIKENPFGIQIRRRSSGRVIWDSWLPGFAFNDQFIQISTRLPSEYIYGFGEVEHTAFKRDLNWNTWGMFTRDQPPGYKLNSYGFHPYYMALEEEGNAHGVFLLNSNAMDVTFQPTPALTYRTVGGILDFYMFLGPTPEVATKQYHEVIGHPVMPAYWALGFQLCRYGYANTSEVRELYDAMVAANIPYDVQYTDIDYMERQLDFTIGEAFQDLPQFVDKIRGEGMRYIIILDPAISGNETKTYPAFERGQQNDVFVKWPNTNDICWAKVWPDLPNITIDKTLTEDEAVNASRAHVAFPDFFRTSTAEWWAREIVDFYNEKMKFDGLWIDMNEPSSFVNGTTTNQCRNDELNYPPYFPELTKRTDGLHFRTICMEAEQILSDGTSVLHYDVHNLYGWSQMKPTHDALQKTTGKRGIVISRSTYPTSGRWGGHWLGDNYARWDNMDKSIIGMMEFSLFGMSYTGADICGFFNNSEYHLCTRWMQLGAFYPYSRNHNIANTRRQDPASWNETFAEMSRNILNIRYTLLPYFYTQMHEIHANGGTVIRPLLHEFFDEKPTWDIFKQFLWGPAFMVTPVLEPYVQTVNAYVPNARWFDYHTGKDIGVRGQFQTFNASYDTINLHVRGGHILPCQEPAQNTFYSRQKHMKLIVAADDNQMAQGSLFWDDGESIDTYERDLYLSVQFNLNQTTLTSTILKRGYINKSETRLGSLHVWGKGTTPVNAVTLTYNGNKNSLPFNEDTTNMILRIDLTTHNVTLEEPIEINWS

On to `CCCCCCC[C@@]1(CO)NC[C@H](O)[C@@H](O)[C@@H]1O`, for which the affinity in experiment [1] corresponds to a Ki of 2500 nM.
Consider `OC[C@H]1NC[C@@H](O)[C@H]1O`, for which, in experiment [2], the IC50 (commonly the concentration needed to halve the response being measured) came to 190 nM.
`CCCCCC[C@]1(CO)NC[C@H](O)[C@@H](O)[C@@H]1O`: the Ki (usually the equilibrium dissociation constant of an inhibitor or competing ligand from its target) in experiment [1] was found to be 6.1 nM.
Still for that read-out and setting: next, `CCCN1C[C@H](O)[C@@H](O)[C@H](O)[C@H]1CO`: 360 nM; `CCCCCCCN1C[C@H](O)[C@@H](O)[C@H](O)[C@H]1CO`: 95 nM.
For `C[C@@H]1NC[C@@H](O)[C@H](O)[C@]1(C)O`, the IC50 in experiment [3] was found to be 50000 nM.
As for `CCCCN1C[C@H](O)[C@@H](O)[C@H](O)[C@H]1CO`, in experiment [1], the affinity corresponds to a Ki of 200 nM.
On to `CCCC[C@]1(CO)NC[C@H](O)[C@@H](O)[C@@H]1O`, for which the Tm in [4] is 70.2 °C. The compound further registered a Ki in experiment [1] of 37 nM.
`C[C@]1(O)CN2C[C@H](O)[C@H](O)[C@@H]2[C@@H](O)[C@@H]1O` had an IC50 in [3] of 200 nM.
As for `CCC[C@]1(CO)NC[C@H](O)[C@@H](O)[C@@H]1O`, the Ki in experiment [1] was found to be 59 nM.
The compound `OC[C@H]1NC[C@H](O)[C@@H](O)[C@@H]1O` [DUVOGLUSTAT] displayed an IC50 in [5] of 1400 nM.
Regarding `CC[C@]1(CO)NC[C@H](O)[C@@H](O)[C@@H]1O`, in experiment [1], the Ki stood at 6000 nM.
Consider `OC[C@@H]1NC[C@H](O)[C@H]1O`, for which it took 1000 nM to reach half-maximal inhibition in [6] (IC50).
Regarding `CCCCC[C@]1(CO)NC[C@H](O)[C@@H](O)[C@@H]1O`, affinity in experiment [1] was put at a Ki of 19 nM.
On to `C[C@]1(CO)NC[C@@H](O)[C@@H]1O`, for which, in [7], it took 740 nM to reach half-maximal inhibition (IC50).
`OC[C@H]1NC[C@@H](O)[C@@H]1O`: inhibition in experiment [8] was half-maximal at 55000 nM (IC50).
With `C[C@@]1(O)CN[C@H](CO)[C@@H]1O`, half-maximal inhibition in [3] (IC50) required 12000 nM.
On the same count and under the same terms, with `C[C@@]1(O)[C@H](O)CN[C@@H]1CO` the figure was 800 nM.
`CCCCCCN1C[C@H](O)[C@@H](O)[C@H](O)[C@H]1CO` had an inhibition constant Ki in experiment [1] of 130 nM.
As to `CCCCCCC[C@]1(CO)NC[C@H](O)[C@@H](O)[C@@H]1O`, the Ki in experiment [1] came out at 4.7 nM.
With `C[C@]1(CO)NC[C@H](O)[C@@H](O)[C@@H]1O`, in experiment [4], the Tm stood at 69.5 °C. The compound also gave an IC50 in [3] of 1000 nM. In [1], this compound yielded a Ki of 37000 nM.
Take `CCCCCN1C[C@H](O)[C@@H](O)[C@H](O)[C@H]1CO`: in [1], the Ki was found to be 210 nM.
`O[C@@H]1[C@@H]2[C@@H](O)[C@H](O)[C@@H](O)CN2C[C@@H]1O`: the IC50 in [9] was determined as 530000 nM.
As for `CCN1C[C@H](O)[C@@H](O)[C@H](O)[C@H]1CO`, in experiment [1], the Ki is 210 nM.

Values taken from ChEMBL document CHEMBL5038656, “5-C-Branched Deoxynojirimycin: Strategy for Designing a 1-Deoxynojirimycin-Based Pharmacological Chaperone with a Nanomolar Affinity for Pompe Disease” (J Med Chem, 2022).
